# Results as given in US5958882A, “Compounds that inhibit T cell proliferation and methods using the same” (Thomas Jefferson University, priority 1996, dated 1999).
# Bridges are numbered along the chain shown (N, C = ends). Where no end group is shown, it is not given here. [ ]: non-standard residue; d: D form.
# Columns and labels:
# [1] = tested on: MLR in a BALB/c (H-2D) anti C3H (H-2K) alloresponse; assay: MLR of Example 10 (Table II); type: cell-based, mouse; conditions: MLR without peptide 66000 CPM
# Experimental: (§1) Mice were sacrificed and spleens aseptically removed. Cell suspensions were made by gently pressing spleens through nylon mesh, washing cells with RPMI 1640 and hypotonic lysis of red blood cells. After 3 washes in RPMI 1640, cells were resuspended in complete medium (RPMI 1640, 10% heat inactivated FCS, 2 mM L-glutamine, penicillin/streptomycin, and […]). 1×10^5 responder cells (BALB/c spleen cells) were incubated with 1×10^5 stimulator cells (C3H spleen cells, 2000 rad irradiated) in triplicate in round bottom 96 well plates (final volume 200 μl), and incubated with the indicated concentration of peptide (0.01, 0.1, 1, 10, 100 and 1000 μM peptide) for 5 days at 37° C., 5% CO2. 1 μCi/WELL OF [^3 H] TdR was added 12 hours before thymidine incorporation was measured. Labelled DNA from cells was harvested onto glass fiber filters with a PHD cell harvester (Cambridge, Mass.), and CPM determined by liquid scintillation counting with the use of a 1209 Rackbeta (LKB, Piscataway, N.J.).
# A MLR was performed as described in Example 6. h84-101 C--C, SEQ ID NO:4, SEQ ID NO:5, SEQ ID NO:6, SEQ ID NO:11, (SEQ ID NO:4+SEQ ID NO:5), and a monoclonal antibody directed against CD4 (OKT4A) were tested for their effect on MLR in a BALB/c (H-2D) anti C3H (H-2K) alloresponse. MLR was also performed without the addition of peptide or antibody (MLR). Each peptide individually has inhibitory activity to a moderate level (30-50%), but when two analogs are added together (SEQ ID NO:4 and SEQ ID NO:5) the effect was synergistic and the inhibition approached 100%, as compared to a monoclonal antibody directed against CD4 (OKT4A).
# [2] = tested on: human T cells stimulated with PHA; assay: Phytohemagglutinin T cell proliferation assay; type: cell-based
# Experimental: The mitogen phytohemagglutinin (PHA) activates T cells by cross-linking CD3/TCR complexes. Human blood is collected from volunteer donors. Lymphocytes are purified by separation over a Ficoll gradient. T cells are separated by rosetting to sheep red blood cells. The enriched T cell population is stimulated with 5 μg/ml phytohemagglutinin (PHA). FIG. 7 illustrates the ability of the D2 peptide analogs to inhibit T cell proliferation in response to PHA stimulation. […] Results are illustrated in FIG. 7.
# [3] = tested on: BALB/c spleen cells (responder) with irradiated C3H spleen cells (stimulator); assay: Mixed lymphocyte reaction (MLR), BALB/c anti-C3H alloresponse; type: cell-based, mouse
# From the text: The mixed lymphocyte reaction (MLR) is the response of one individual's T lymphocytes to those of a major histocompatibility complex (MHC) mismatched donor. CD4+ T cells recognize the foreign MHC proteins and proliferate in response to this, in a manner highly dependent on the CD4 molecule.
# as §1
# A MLR was performed as described in Example 6. Cells were incubated with a 0.01, 0.1, 1, 10, 100, and 1000 μM of each of the following peptides: SEQ ID NO:1 (mPGPtide), and control peptides, SEQ ID NO:3 (hPGPtides) and SEQ ID NO:13 (mCDR3 scramble). […] Activity was approximately 85000 CPM after the addition of 0.01 μM SEQ ID NO:1, and approximately 30000 CPM after the addition of 200 μM SEQ ID NO:1. […] Activity was approximately 75000 CPM at 0.01 μM SEQ ID NO:3, and approximately 60000 CPM after the addition of 200 μM SEQ ID NO:3. Similarly, activity was approximately 80000 CPM after the addition of 0.01 μM of SEQ ID NO:13, and approximately 90000 CPM after the addition of 200 μM SEQ ID NO:13. […]
# [4] = tested on: human mixed lymphocyte reaction; assay: Human mixed lymphocyte reaction (Example 8, FIG. 3); type: cell-based
# [5] = tested on: lethal GVHD in irradiated DBA/2 mice given B10.D2 CD4+ T cells; assay: GVHD mediated by CD4+ T cells; type: in vivo, mouse; conditions: 0.5 mg i.v. on days 0 and 3
# From the text: The transplantation of B10.D2 CD4+ T cells along with T-cell-depleted bone marrow has been shown previously to induce a lethal GVHD response in irradiated (850 cGy) DBA/2 mice (Korngold and Sprent, (1987) J. Exp. Med. 165:1552-1564).
# EAE in SJL mice = assay: Experimental allergic encephalomyelitis (EAE) model; type: in vivo, mouse; conditions: for maximum EAE incidence: SJL mice, untreated 83%; for maximum mean EAE severity grade (0-5): untreated 2.17; for average time of initial onset: untreated day 15.6
# Experimental: Experimental allergic encephalomyelitis (EAE) is considered to be the best experimental animal model for the study of multiple sclerosis since it shares many of the same clinical and histopathological features as the human disorder. EAE can be elicited in several animal species, including mice, by inoculation of crude CNS tissue extracts, purified MBP, proteolipids, or synthetic polypeptides composed of the active portions of these antigenic molecules. Antigen is administered subcutaneously in conjunction with complete Freund's adjuvant (CFA) and, in our modification of the standard procedure, is given twice on days 0 and 7 for induction (Korngold et al., (1986) Immunogenetics 24:309-315, which is incorporated herein by reference). Symptoms of disease usually occur between 15-19 days after initial immunization and may last for up to 25 days. Mice usually recover from the acute EAE attack, but may relapse at a later time, or are susceptible to an enhanced disease episode upon further immunization.
# SJL mice, which are highly susceptible to the induction of acute EAE, were immunized as described in Korngold et al., (1986) Immunogenetics 24:309-315. Accordingly, 1 mg of crude SJL mouse spinal cord homogenate (MSCH) was diluted in 0.15 ml phosphate buffered solution and emulsified in an equal volume of CFA. 0.15 ml of the inoculum was injected subcutaneously in each of two sites on the posterior flank of mice anesthetized with metaphane. A secondary inoculation, similar to the primary, was administered at 7 days. Mice were evaluated daily for symptoms of disease and graded 0-5: 0=no clinical expression of disease; 1=flaccid tail with or without mild hind leg weakness; 2=flaccid tail with moderate hind leg weakness; 3=severe hind leg weakness and mild forelimb weakness; 4=total hind leg paralysis associated with moderate forelimb weakness; and 5=quadriplegia or a moribund state.
# The mice were divided into four groups: the first left untreated; the second injected on days 2 and 8 intravenously 10 (i.v.) with 0.5 mg of the D amino acid CDR3-like peptide #1; the third injected on day 12 i.v. with the D amino acid CDR3-like peptide #1; and the fourth injected i.v. on days 2 and 8 with a control D-polypeptide of similar length to the D amino acid CDR3-like peptide #1.
# With the same experiment described above, mice from the different treatment groups were scored for the clinical expression of disease. […] The ifferences were statistically significant, by Tukey multiple analysis of variance, between: the untreated and the D amino acid CDR3-like peptide #1 day 2,8 treated group on days 16-19 and 24 […]; the untreated and the D amino acid CDR3-like peptide #1 day 12 treated group on days 16-24 (0.01≤p≤0.05); and the control peptide day 2,8 group and the D amino acid CDR3-like peptide #1 day 2,8 treated group on day 17 (p=0.02).
# To investigate whether D amino acid CDR3-like peptide #1 could have an effect upon the development of EAE once symptoms have already appeared and therefore corresponding to the effector phase of the disease, 30 SJL mice were inoculated on days 0 and 7 with MSCH and CFA, as described above. 12 mice that had reached a grade 1 level of clinical EAE expression by day 16 were selected and randomly grouped to be left untreated or treated with 0.5 mg i.v. of D amino acid CDR3-like peptide #1. […] At day 18, the difference between the untreated and treated groups was statistically significant (p=0.003).
substance,measurement,setting,value
C*RSPRGKNC [SEQ ID NO:6],CPM,[1],50000 CPM
same,CPM after PHA stimulation,"[2]; 0.25 μM peptide, 5 μg/ml PHA",48000 CPM
same,CPM after PHA stimulation,[2]; 250 μg peptide,39500 CPM
CLLVFEVEDQKEEVQGLC [SEQ ID NO:13],MLR activity (CPM),[3]; 0.01 μM peptide,approximately 80000 CPM
same,MLR activity (CPM),[3]; 200 μM peptide,approximately 90000 CPM
same,inhibitory activity on MLR,"[3]; BALB/c anti-C3H MLR, 5 days, [3H]TdR incorporation",little or no activity
same,% CPM of the positive control,[4]; 500 μM peptide,about 100%
same,inhibition of the proliferative response of the human MLR,[4]; 0.1-1000 μM,little or no inhibition
CPGPEEKRNELEC ([dC][dP]G[dP][dE][dE][dK][dR][dN][dE][dL][dE][dC]; disulfide 1-13 (inferred)) [D amino acid CDR3-like peptide #1],incidence of survival,[5]; untreated 83% lethal GVHD,57%
same,median survival time,"[5]; untreated 15 days, experiment ended at 65 days",greater than 65 days
same,"EAE severity grade reached, effector phase","EAE in SJL mice; 0.5 mg i.v. at grade 1 on day 16, value on day 19, untreated 2.4 by day 18",1.17
same,maximum EAE incidence,EAE in SJL mice; i.v. on day 12,31%
same,maximum EAE incidence,EAE in SJL mice; i.v. on days 2 and 8 (0.5 mg),36%
same,days of peak EAE severity,"EAE in SJL mice; groups treated on days 2,8 or day 12",19 to 21 days
same,effect on the course of disease progression (EAE),EAE in SJL mice; murine EAE model,dramatically intervened in the progression
same,maximum mean EAE severity grade (0-5),EAE in SJL mice; treated on day 12,0.75
same,average time of initial onset,EAE in SJL mice; treated on day 12,17.0 days
same,maximum mean EAE severity grade (0-5),"EAE in SJL mice; treated on days 2,8",0.77
same,average time of initial onset,"EAE in SJL mice; treated on days 2,8",17.1 days
LESPPGSSPSV [SEQ ID NO:5],CPM,[1],48000 CPM
same,CPM after PHA stimulation,"[2]; 0.25 μM peptide, 5 μg/ml PHA",53500 CPM
same,CPM after PHA stimulation,[2]; 250 μg peptide,39500 CPM
TCTNLQNQKKVECK [SEQ ID NO:4],CPM,[1],42000 CPM
same,CPM after PHA stimulation,"[2]; 0.25 μM peptide, 5 μg/ml PHA",47000 CPM
same,CPM after PHA stimulation,[2]; 250 μg peptide,38000 CPM
